Reference: PubChem BioAssay (NCI)
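These data come from cells grown in 96-well plates and exposed to compound for 48 hours at five concentrations. The concentration for 50% growth inhibition is given as GI50. Definition used: TGI = concentration required for complete inhibition of growth.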

Columns and labels:
Test in all cases: NCI-60 cell line screen, 48 h
[1] = test system: SK-MEL-2 melanoma
[2] = test system: A549 NSCLC
[3] = test system: KM12 colon
[4] = test system: NCI-H226 lung
[5] = test system: UACC-257 melanoma
[6] = test system: HOP-62 NSCLC
[7] = test system: NCI/ADR-RES ovarian
[8] = test system: RXF 393 renal
[9] = test system: M19-MEL melanoma
[10] = test system: DLD-1 colon

Row | SMILES | GI50 [1] [µM] | TGI [1] [µM] | GI50 [2] [nM] | TGI [2] [µM] | GI50 [3] [nM] | TGI [3] [µM] | GI50 [4] [µM] | TGI [4] [µM] | GI50 [5] [µM] | TGI [5] [µM] | GI50 [6] [nM] | TGI [6] [µM] | GI50 [7] [nM] | TGI [7] [µM] | GI50 [8] [nM] | TGI [8] [µM] | TGI [9] [µM] | TGI [10] [µM]
1 | Cc1cc(CCl)c(C)cc1CCl | 3.27 | 13.3 | 1660 | 5.09 | 845 | 2.42 | 2.89 | 16 | 2.15 | 5.29 | 1580 | 3.79 | 2070 | 7.77 | 2930 | 8.72 |  | 
2 | CC(C)(C)[Si](C)(C)OC1[C@@H](CNC(N)=O)O[C@@H](n2cnc3c(NC(=O)Nc4ccccc4)ncnc32)[C@H]1O[Si](C)(C)C(C)(C)C (some centres undefined) | 7.09 | 14.9 | 1980 | 7.82 | 1090 | 2.2 | 5.39 | 11.7 | 5.36 | 12.1 | 6380 | 12.9 | 2930 | 9.81 | 1950 | 7.02 |  | 
3 | O=c1c2c(-c3ccccc3)c3ccccc3nc2cnn1-c1ccccc1 |  | > 100 |  | > 100 |  | > 100 |  | > 100 |  | > 100 |  | > 100 |  |  |  | > 100 | > 100 | 
4 | COc1cc([C@@H]2c3cc4c(cc3[C@H](OC(C)=O)[C@H]3COC(=O)[C@@H]23)OCO4)cc(OC)c1OC | 0.342 |  | 463 | > 100 | 298 |  | 3.82 |  |  | > 100 | 400 | > 100 | 336 |  | 235 | 0.591 |  | 
5 | COc1ccc2c(c1)CN([C@@H](C)[C@H]1CC[C@H]3[C@@H]4CC[C@H]5C[C@@H](O)CC[C@]5(C)[C@H]4CC[C@]13C)CO2 |  | 3.83 |  | 4.51 |  | 4.31 |  | 24.3 |  | 6.31 |  | 4 |  | 18.6 |  | 2.74 |  | 
6 | C=C1C(=O)O[C@H]2[C@H]1CC/C(COC(=O)N[C@H]1C[C@H](O[C@H]3C[C@](O)(C(=O)CO)Cc4c(O)c5c(c(O)c43)C(=O)c3c(OC)cccc3C5=O)O[C@@H](C)[C@H]1O)=C\CC[C@@]1(C)O[C@@H]21 | 7.97 | 17 | > 50000 | > 50 | 13200 | 40.7 | 5.33 | 12.6 | 7.17 | 13.7 | 22700 | > 50 | > 50000 | > 50 | 1220 | 3.85 |  | 
7 | CCOc1cccc2c1N[S@@](=O)S2 |  | > 100 |  | > 100 |  | > 100 |  | > 100 |  | > 100 |  |  |  |  |  |  | > 100 | > 100
8 | CC(NC(=O)Cc1ccc(C(F)(F)P(=O)(OCc2ccc([N+](=O)[O-])o2)N(C)CCCCCl)cc1)c1ccc(OCC2CCCCC2)c(C(N)=O)c1 (centres undefined) | 6.48 | > 48.5 | 14500 | 58.7 | 3320 | 10.2 | 5.52 | 15.1 | 17.5 | 34.7 | 4080 | 12.1 | 6510 | > 93.4 | 4360 | 9.97 |  | 
9 | CCCC1(CN2c3ccccc3Sc3ccc(Cl)cc32)CCN(CC)C1 (centres undefined) | 2.3 | 4.28 | 1780 | 3.38 | 1650 | 3.18 | 1.74 | 3.76 | 1.77 | 3.56 | 1590 | 3.08 | 1680 | 3.36 | 1540 | 2.94 |  | 
